Data reported in patent publication US7691889B2, “Antimycobacterial compounds” (Lupin Limited, priority 2002, dated 2010).
Values after ≈ are worked out from the molar mass of the structure shown. Like-named read-outs stand apart in the source and are kept apart here.

Columns and labels:
M. fortuitum = assay: In vitro agar dilution assay (MIC), M. fortuitum; type: cell-based; conditions: Table II
M. tuberculosis 27294 = assay: In vitro agar dilution assay (MIC), reference strain; type: cell-based, Mycobacterium tuberculosis; conditions: for MIC against M. tuberculosis 27294: Middlebrook 7H10
[1] = test system: M. tuberculosis ATCC 27294 infection; assay: Murine model of pulmonary tuberculosis; conditions: for Mean Log10 No. of CFU Lung / Mean Log10 No. of CFU Spleen: 5 day/week for 4 weeks, mice; for Mean Log10 No. of reduction Lung / Mean Log10 No. of reduction Spleen: difference from early controls
[2] = test system: M. tuberculosis clinical isolates, sensitive; assay: microbe, parasite or virus in culture; type: cell-based, Mycobacterium tuberculosis; conditions: for MIC: Mycobacterium tuberculosis; for MIC against Clinical isolates Sensitive: Table I, agar dilution
M. kansai = assay: In vitro agar dilution assay (MIC), M. kansai; type: cell-based; conditions: Table II
Acute toxicity in mice = type: in vivo; conditions: P. O.

Molecule: NNC(=O)c1ccncc1 [Isoniazid, reference compound]
- MIC (M. fortuitum; Mycolicibacterium fortuitum): > 16 µg/mL
- MIC (M. tuberculosis 27294; Mycobacterium tuberculosis, 27294, Middlebrook 7H10, read-out: MIC against M. tuberculosis 27294): 0.25 µg/mL (≈ 1.82 µM)
- Mean Log10 No. of CFU Lung ([1]; 12.5 mg/kg by gavage): 2.95
- Mean Log10 No. of CFU Spleen ([1]; 12.5 mg/kg by gavage): 2.94
- Mean Log10 No. of reduction Lung ([1]; 12.5 mg/kg): 1.57
- Mean Log10 No. of reduction Spleen ([1]; 12.5 mg/kg): 1.68
- Mean Log10 No. of CFU Lung ([1]; 25 mg/kg by gavage): 2.11
- Mean Log10 No. of CFU Spleen ([1]; 25 mg/kg by gavage): 2.11
- Mean Log10 No. of reduction Lung ([1]; 25 mg/kg): 2.41
- Mean Log10 No. of reduction Spleen ([1]; 25 mg/kg): 2.51
- Mean Log10 No. of CFU Lung ([1]; 50 mg/kg by gavage): 2.03
- Mean Log10 No. of CFU Spleen ([1]; 50 mg/kg by gavage): 1.92
- Mean Log10 No. of reduction Lung ([1]; 50 mg/kg): 2.49
- Mean Log10 No. of reduction Spleen ([1]; 50 mg/kg): 2.70
- MIC ([2]; read-out: MIC M. tuberculosis Sensitive): 0.25 µg/mL (≈ 1.82 µM)
- MIC ([2]; read-out: MIC against Clinical isolates Sensitive): 0.12 to 0.25 µg/mL (≈ 0.875 to 1.82 µM)
- MIC (M. kansai): > 16 µg/mL

Molecule: CC(C)Cc1ccc(C(=O)CCC(=O)NC[C@H]2CN(c3ccc([N+]4([O-])CCOCC4)c(F)c3)C(=O)O2)cc1 [Compound 33]
- MIC against M. tuberculosis 27294 (M. tuberculosis 27294): 0.5 µg/mL (≈ 0.948 µM)
- MIC against Clinical isolates Sensitive [2]: 1 µg/mL (≈ 1.9 µM)

Molecule: Cc1ccc(C(=O)CCC(=O)NC[C@H]2CN(c3ccc(N4CCOCC4)c(F)c3)C(=O)O2)cc1 [Compound 2, (S)-N-[[3-(3-fluoro-4-morpholinylphenyl)-2-oxo-5-oxazolidinyl]methyl]-4-(4-methylphenyl)-4-oxobutanamide]
- MIC against M. tuberculosis 27294 (M. tuberculosis 27294): 8 µg/mL (≈ 17 µM)
- MIC against Clinical isolates Sensitive [2]: 8 µg/mL (≈ 17 µM)

Molecule: COc1ccc(C(=O)CCC(=O)NC[C@H]2CN(c3ccc(N4CCCCC4)c(F)c3)C(=O)O2)cc1 [Compound 35, (S)-N-[[3-(3-fluoro-4-piperidylphenyl)-2-oxo-5-oxazolidinyl]methyl]-4-(4-methoxyphenyl)-4-oxobutanamide]
- MIC against M. tuberculosis 27294 (M. tuberculosis 27294): 4 µg/mL (≈ 8.27 µM)
- MIC against Clinical isolates Sensitive [2]: 2 to 4 µg/mL

Molecule: CSc1ccc(C(=O)CCC(=O)NC[C@H]2CN(c3ccc(N4CCOCC4)c(F)c3)C(=O)O2)cc1 [Compound 21, (S)-N-[[3-(3-fluoro-4-morpholinylphenyl)-2-oxo-5-oxazolidinyl]methyl]-4-oxo-4-(4-thiomethyl)phenylbutanamide]
- MIC against M. tuberculosis 27294 (M. tuberculosis 27294): 0.5 µg/mL (≈ 0.997 µM)
- MIC against Clinical isolates Sensitive [2]: 0.5 to 2 µg/mL

Molecule: O=C(CCC(=O)c1ccc2ccccc2c1)NC[C@H]1CN(c2ccc([N+]3([O-])CCOCC3)c(F)c2)C(=O)O1 [Compound 30, (S)-N-[[3-(3-fluoro-4-morpholinylphenyl)-2-oxo-5-oxazolidinyl]methyl]-4-(4-2-naphthyl)-4-oxobutanamide-N-oxide]
- LD0 (acute toxicity) (Acute toxicity in mice): > 1000 mg/kg
- MIC M. fortuitum (M. fortuitum): >16.0 µg/mL
- MIC against M. tuberculosis 27294 (M. tuberculosis 27294): 0.5 µg/mL (≈ 0.959 µM)
- Mean Log10 No. of CFU Lung ([1]; 12.5 mg/kg by gavage): 4.34
- Mean Log10 No. of CFU Spleen ([1]; 12.5 mg/kg by gavage): 4.30
- Mean Log10 No. of reduction Lung ([1]; 12.5 mg/kg): 0.20
- Mean Log10 No. of reduction Spleen ([1]; 12.5 mg/kg): 0.26
- Mean Log10 No. of CFU Lung ([1]; 25 mg/kg by gavage): 2.21
- Mean Log10 No. of CFU Spleen ([1]; 25 mg/kg by gavage): 2.13
- Mean Log10 No. of reduction Lung ([1]; 25 mg/kg): 2.30
- Mean Log10 No. of reduction Spleen ([1]; 25 mg/kg): 2.49
- Mean Log10 No. of CFU Lung ([1]; 50 mg/kg by gavage): 2.12
- Mean Log10 No. of CFU Spleen ([1]; 50 mg/kg by gavage): 2.09
- Mean Log10 No. of reduction Lung ([1]; 50 mg/kg): 2.40
- Mean Log10 No. of reduction Spleen ([1]; 50 mg/kg): 2.53
- MIC against Clinical isolates Sensitive [2]: 0.5 µg/mL (≈ 0.959 µM)
- MIC M. tuberculosis Sensitive ([2]; Table II): 0.50 µg/mL (≈ 0.959 µM)
- MIC M. kansai (M. kansai): 8.0 µg/mL (≈ 15.3 µM)

Molecule: O=C(C=CC(=O)c1ccccc1)NC[C@H]1CN(c2ccc(N3CCOCC3)c(F)c2)C(=O)O1 [Compound 34, (S)-N-[[3-(3-fluoro-4-morpholinylphenyl)-2-oxo-5-oxazolidinyl]methyl]-4-oxo-4-phenylbut-2-enamide]
- MIC against M. tuberculosis 27294 (M. tuberculosis 27294): >16 µg/mL
- MIC against Clinical isolates Sensitive [2]: >16 µg/mL

Molecule: COc1ccc(C(=O)CCC(=O)NC[C@H]2CN(c3ccc(N4CCOCC4)c(F)c3)C(=O)O2)cc1 [Compound 13, (S)-N-[[3-(3-fluoro-4-morpholinylphenyl)-2-oxo-5-oxazolidinyl]methyl]-4-(4-methoxyphenyl)-4-oxobutanamide]
- MIC against M. tuberculosis 27294 (M. tuberculosis 27294): 2 µg/mL (≈ 4.12 µM)
- MIC against Clinical isolates Sensitive [2]: 2 µg/mL (≈ 4.12 µM)

Molecule: O=C(C=CC(=O)c1ccccc1)NC[C@H]1CN(c2ccc(N3CCCCC3)c(F)c2)C(=O)O1 [Compound 55, (S)-N-[[3-(3-fluoro-4-piperidylphenyl)-2-oxo-5-oxazolidinyl]methyl]-4-oxo-4-phenylbut-2-enamide]
- MIC against M. tuberculosis 27294 (M. tuberculosis 27294): >16 µg/mL
- MIC against Clinical isolates Sensitive [2]: >16 µg/mL

Molecule: (S)-N-[[3-(3-fluoro-4-(1,2,4-triazolyl)phenyl)-2-oxo-5-oxazolidinyl]methyl]-4-oxo-4-phenylbutanamide [Compound 40]
- MIC against M. tuberculosis 27294 (M. tuberculosis 27294): 1 µg/mL
- MIC against Clinical isolates Sensitive [2]: 1 to 2 µg/mL

Molecule: O=C(CCC(=O)c1cccs1)NC[C@H]1CN(c2ccc([N+]3([O-])CCOCC3)c(F)c2)C(=O)O1 [Compound 31, (S)-N-[[3-(3-fluoro-4-morpholinylphenyl)-2-oxo-5-oxazolidinyl]methyl]-4-oxo-4-(2-thienyl)butanamide-N-oxide]
- MIC against M. tuberculosis 27294 (M. tuberculosis 27294): 1 µg/mL (≈ 2.09 µM)
- MIC against Clinical isolates Sensitive [2]: 1 to 2 µg/mL

Molecule: Cc1ccc(C(=O)CCC(=O)NC[C@H]2CN(c3ccc(N4CCOCC4)c(F)c3)C(=O)O2)c(C)c1 [Compound 25, (S)-N-[[3-(3-fluoro-4-morpholinylphenyl)-2-oxo-5-oxazolidinyl]methyl]-4-(2,4-dimethylphenyl)-4-oxobutanamide]
- MIC against M. tuberculosis 27294 (M. tuberculosis 27294): 4 µg/mL (≈ 8.27 µM)
- MIC against Clinical isolates Sensitive [2]: 4 to 16 µg/mL
